The values below are quoted from earlier work in patent US20020035037A1, “CONTROL OF SCLEROTIUM CEPIVORUM IN ALLIUM PLANTS” (priority 1991, published 2002).

The subject of the data set is Sclerotium cepivorum. Conditions: iprodione 125 g/kg seed as seed treatment; procymidon 4-6 kg/ha as soil treatment; particularly with heavy infestation.

Structures are written as SMILES.

On to `CC(C)NC(=O)N1CC(=O)N(c2cc(Cl)cc(Cl)c2)C1=O` [iprodione], for which the “effectiveness of control of Sclerotium cepivorum” value is “not effective”.
Take `CC12CC1(C)C(=O)N(c1cc(Cl)cc(Cl)c1)C2=O` (centres unmarked) [procymidon]: the “effectiveness of control of Sclerotium cepivorum” value is recorded as “not effective”.
